Measurements reported in EP0252380B1, “Antibiotic LL-E19020 alpha and beta” (AMERICAN CYANAMID COMPANY, priority 1986, dated 1988).
≈ marks a conversion by molar mass, not a printed value. Marks after values point to notes of the source that are not given here.

What was measured:
[1] = test system: Staphylococcus aureus; assay: In vitro antibacterial activity, standard agar dilution method (Table II); type: cell-based
[2] = test system: Streptococcus sp. (β-hemolytic); assay: as above; type: cell-based
[3] = test system: Klebsiella pneumoniae; assay: as above; type: cell-based; settings: strain AD
[4] = test system: Morganella morganii; assay: as above; type: cell-based; settings: strain VGH-84-71
[5] = test system: Serratia marcescens; assay: as above; type: cell-based; settings: strain K-84-18
[6] = test system: Pseudomonas aeruginosa; assay: as above; type: cell-based; settings: strain 12-4-4
[7] = test system: Bacteroides fragilis; assay: as above; type: cell-based; settings: strain NYC 77-1
[8] = test system: Clostridium perfringens; type: cell-based; settings: strain ATCC 13124
[9] = test system: Streptococcus agalactiae; assay: Minimum inhibitory concentration by agar dilution (Table VI); type: cell-based; settings: 4 strains tested
[10] = test system: Escherichia coli; assay: as above; type: cell-based; settings: 2 strains tested
[11] = test system: Salmonella choleraesuis; assay: as above; type: cell-based; settings: 2 strains tested
[12] = test system: Pasteurella haemolytica; assay: as above; type: cell-based; settings: 3 strains tested
[13] = Growth of chickens and efficiency of feed utilization (Example 5, Table VIII); type: in vivo, Peterson X Arbor Acres chicks; settings: for Feed/Gain 0-1 Wk: control 1.21; for Feed/Gain 0-2 Wk: control 1.33; for Feed/Gain 0-3 Wk: control 1.43
Protocol: In this test one day old Peterson X Arbor Acres chicks are sorted into equal weight groups of 5 males and 5 females per cage. Cages are randomized to treatment groups with six replicates per treatment. Each compound is tested at 50 and 100 ppm in the diet and evaluated against chicks receiving a non-medicated diet.
The chicks are weighed at the start of the test and at 1 week intervals thereafter to the conclusion of said test. The chicks are given free access to feed and water during the entire test period. The feed is weighed when provided to the chicks and excess feed collected and weighed when the cages are cleaned.
The poultry diet employed in the test is as follows: Vitamin-amino acid premix 0.5% Trace minerals 0.1% Sodium chloride 0.3% Dicalcium phosphate 1.2% Ground limestone 0.5% Stabilized fat 4.0% Dehydrated alfalfa, 17% protein 2.0% Corn gluten meal, 41% protein 5.0% Menhaden fish meal, 60% protein 5.0% Soybean oil meal, 44% protein 30.0% Ground yellow corn, fine to 100.0%
The vitamin-amino acid premix in the above feed composition is prepared from the following formulation. The expressions of quantity relate to units per kilogram of the finished feed compositions. Butylated hydroxy toluene 125.0 mg d1-Methionine 500.0 mg Vitamin A 3300.0 I.U. Vitamin D₃ 1100.0 I.C.U. Riboflavin 4.4 mg Vitamin E 2.2 I.U. Niacin 27.5 mg Panthothenic acid 8.8 mg Choline chloride 500.0 mg Folic acid 1.43 mg Menadione sodium bisulfate 1.1 mg Vitamin B₁₂ 11.0 mcg Ground yellow corn, fine to […]

[14] = Weight gain and feed efficiency of broiler chicks (Example 6, Table IX); type: in vivo, Peterson X Arbor Acres chicks; settings: for Wg Gains And Feed Efficiency % Improvement Over Controls FEED/GAIN: control 1.41
[15] = test system: Streptococcus pyogenes C203; assay: In vivo antibacterial activity in infected mice (Table III); settings: S. pyogenes C203, 30 minutes before infection
[16] = test system: Staphylococcus aureus Smith; assay: as above; settings: S. aureus Smith, 30 minutes before infection
[17] = single subcutaneous dose 4 mg/kg
[18] = single subcutaneous dose 16 mg/kg
[19] = single subcutaneous dose 64 mg/kg

C/C=C\C=C\[C@@H]1O[C@](O)([C@H](CO[C@H]2C[C@@H](OC)[C@@H](O[C@@H]3C[C@@H](OC)[C@@H](O[C@H]4C[C@H](OC)[C@H](O)[C@H](C)O4)[C@H](C)O3)[C@@H](C)O2)C(=O)NC/C=C/C=C(\C)[C@@H](OC)[C@H](C)[C@H]2C[C@H](O)[C@H](/C=C/C=C/C=C/C(=O)O)O2)[C@H](OC(=O)Cc2ccccc2)[C@H](O)C1(C)C [LL-E19020 alpha]
Minimal Inhibitory Concentration ([1]; strain ATCC 25923): > 256 µg/mL
Minimal Inhibitory Concentration ([1]; strain CMC-83-127): > 256 µg/mL
Minimal Inhibitory Concentration ([1]; strain CMC-83-131): > 256 µg/mL
Minimal Inhibitory Concentration ([1]; strain CMC-83-132): > 256 µg/mL
Minimal Inhibitory Concentration ([1]; strain SSC-82-57): > 256 µg/mL
Minimal Inhibitory Concentration ([1]; strain Smith): 128 µg/mL
Minimal Inhibitory Concentration ([1]; strain VGH-84-45): > 256 µg/mL
Minimal Inhibitory Concentration ([2]; strain C203): 0.5 µg/mL
Minimal Inhibitory Concentration ([2]; strain VGH-84-60): 0.25 µg/mL
Minimal Inhibitory Concentration ([2]; strain VGH-84-61): 1 µg/mL
Minimal Inhibitory Concentration ([2]; strain VGH-84-62): 1 µg/mL
Minimal Inhibitory Concentration ([2]; strain VGH-84-63): 0.12 µg/mL
Minimal Inhibitory Concentration ([2]; strain VGH-84-64): 0.12 µg/mL
Minimal Inhibitory Concentration [3]: >256 µg/mL
Minimal Inhibitory Concentration [4]: >256 µg/mL
Minimal Inhibitory Concentration [5]: >256 µg/mL
Minimal Inhibitory Concentration [6]: >256 µg/mL
Minimal Inhibitory Concentration [7]: >128 µg/mL
Minimal Inhibitory Concentration [8]: 16 µg/mL
MIC [9]: 2 to 8 µg/mL
MIC [10]: ≧ 256 µg/ml
MIC [11]: > 256 µg/mL
MIC [12]: 16 µg/mL (≈ 13 µM)
Weight Gains % Improvement over Controls 0-1 Wk ([13]; 50 ppm in the diet): 12.5** %
Weight Gains % Improvement over Controls 0-2 Wk ([13]; 50 ppm in the diet): 4.1* %
Weight Gains % Improvement over Controls 0-3 Wk ([13]; 50 ppm in the diet): 4.2* %
Feed/Gain 0-1 Wk ([13]; 50 ppm in the diet): 1.11*
Feed/Gain 0-2 Wk ([13]; 50 ppm in the diet): 1.30
Feed/Gain 0-3 Wk ([13]; 50 ppm in the diet): 1.38
Weight Gains % Improvement over Controls 0-1 Wk ([13]; 100 ppm in the diet): 8.9* %
Weight Gains % Improvement over Controls 0-2 Wk ([13]; 100 ppm in the diet): 6.3** %
Weight Gains % Improvement over Controls 0-3 Wk ([13]; 100 ppm in the diet): 6.1** %
Feed/Gain 0-1 Wk ([13]; 100 ppm in the diet): 1.12*
Feed/Gain 0-2 Wk ([13]; 100 ppm in the diet): 1.27
Feed/Gain 0-3 Wk ([13]; 100 ppm in the diet): 1.39
efficiency of feed utilization (statement in words) ([13]; over unmedicated controls): increased the efficiency of feed utilization
weight gains of chicks (statement in words) ([13]; over unmedicated controls): improved the weight gains of chicks
Wg Gains And Feed Efficiency % Improvement Over Controls COMBINED ([14]; 12.5 PPM in diet): 3.8%
Wg Gains And Feed Efficiency % Improvement Over Controls FEMALES ([14]; 12.5 PPM in diet): 7.8* %
Wg Gains And Feed Efficiency % Improvement Over Controls MALES ([14]; 12.5 PPM in diet): 0%
Wg Gains And Feed Efficiency % Improvement Over Controls FEED/GAIN ([14]; 12.5 PPM in diet): 1.36*
Wg Gains And Feed Efficiency % Improvement Over Controls COMBINED ([14]; 25 PPM in diet): 5.5%
Wg Gains And Feed Efficiency % Improvement Over Controls FEMALES ([14]; 25 PPM in diet): 4.8%
Wg Gains And Feed Efficiency % Improvement Over Controls MALES ([14]; 25 PPM in diet): 5.9%
Wg Gains And Feed Efficiency % Improvement Over Controls FEED/GAIN ([14]; 25 PPM in diet): 1.34**
Wg Gains And Feed Efficiency % Improvement Over Controls COMBINED ([14]; 50 PPM in diet): 6.6* %
Wg Gains And Feed Efficiency % Improvement Over Controls FEMALES ([14]; 50 PPM in diet): 10.5** %
Wg Gains And Feed Efficiency % Improvement Over Controls MALES ([14]; 50 PPM in diet): 3.6%
Wg Gains And Feed Efficiency % Improvement Over Controls FEED/GAIN ([14]; 50 PPM in diet): 1.34**
Wg Gains And Feed Efficiency % Improvement Over Controls COMBINED ([14]; 100 PPM in diet): 2.9%
Wg Gains And Feed Efficiency % Improvement Over Controls FEMALES ([14]; 100 PPM in diet): 3.2%
Wg Gains And Feed Efficiency % Improvement Over Controls MALES ([14]; 100 PPM in diet): 2.9%
Wg Gains And Feed Efficiency % Improvement Over Controls FEED/GAIN ([14]; 100 PPM in diet): 1.34**
Wg Gains And Feed Efficiency % Improvement Over Controls COMBINED ([14]; 200 PPM in diet): 5.7%
Wg Gains And Feed Efficiency % Improvement Over Controls FEMALES ([14]; 200 PPM in diet): 7.1%
Wg Gains And Feed Efficiency % Improvement Over Controls MALES ([14]; 200 PPM in diet): 4.5%
Wg Gains And Feed Efficiency % Improvement Over Controls FEED/GAIN ([14]; 200 PPM in diet): 1.32**
Survival Ratios 7 Days After Infection [15, 17]: 2/5
Survival Ratios 7 Days After Infection ([15]; single subcutaneous dose 8 mg/kg): 4/5
Survival Ratios 7 Days After Infection [15, 18]: 5/5
Survival Ratios 7 Days After Infection ([15]; single subcutaneous dose 32 mg/kg): 5/5
Survival Ratios 7 Days After Infection [15, 19]: 5/5
Survival Ratios 7 Days After Infection [16, 17]: 2/5
Survival Ratios 7 Days After Infection [16, 18]: 3/5
Survival Ratios 7 Days After Infection [16, 19]: 3/5
Survival Ratios 7 Days After Infection ([16]; single subcutaneous dose 256 mg/kg): 3/5
